# US20160367623A1, “AGONISTS OF GUANYLATE CYCLASE USEFUL FOR THE TREATMENT OF GASTROINTESTINAL DISORDERS, INFLAMMATION, CANCER AND OTHER DISORDERS” (priority 2015, published 2016)
# Bridge positions count the residues as written; N and C are the ends. Ends that are not written are not given here.
# Tested on: patients with chronic idiopathic constipation (CIC)
# Test: Second phase 3 CIC trial: CSBM weekly responders by week
# Assay type: in vivo, human
# Settings: MRA
# Source text: Both trials include a two-week pre-treatment baseline period, a 12-week treatment period, and a two-week post-treatment period. The phase 3 CIC program was designed to support regulatory submission in the U. S.
# The primary endpoint for both trials is the proportion of durable overall responders (%), which is the current regulatory endpoint required for U.S. approval in CIC. The FDA has defined a durable overall responder as a patient who fulfills both ≧3 complete spontaneous bowel movements (CSBMs) per week plus an increase of ≧1 CSBM from baseline in the same week, for 9 out of the 12 treatment weeks. In addition, the same patient must be an overall responder for at least 3 of the last 4 treatment weeks in order to be considered a durable overall responder.
# Patients were selected using Rome 3 criteria modified for CIC and had (1) fewer than 3 defecations per week, (2) loose stools occurring rarely without laxatives, (3) inadequate criteria for irritable bowel syndrome with constipation (IBS-C), and (4) at least two of the following applied to at least 25% of defecations: (a) straining during evacuation, (b) lumpy or hard stools, (c) sensation of anorectal obstruction or blockage. Rome 3 requires patients to fulfill the criteria for the last 3 months with symptom onset at least 6 months prior to diagnosis.
# [1] = Week 6, 3 mg, ITT Population-Excluding Duplicate Patients
# [2] = Week 6, 6 mg, ITT Population-Excluding Duplicate Patients
# [3] = Week 6, Active Combined, ITT Population-Excluding Duplicate Patients
# [4] = Week 6, Active Combined, ITT Population
# [5] = Week 7, 3 mg, ITT Population-Excluding Duplicate Patients
# [6] = Week 7, 6 mg, ITT Population-Excluding Duplicate Patients
# [7] = Week 7, Active Combined, ITT Population-Excluding Duplicate Patients
# [8] = Week 7, Active Combined, ITT Population
# [9] = Week 8, 3 mg, ITT Population-Excluding Duplicate Patients
# [10] = Week 8, 6 mg, ITT Population-Excluding Duplicate Patients
# [11] = Week 8, Active Combined, ITT Population-Excluding Duplicate Patients
# [12] = Week 8, Active Combined, ITT Population
# [13] = Week 9, 3 mg, ITT Population-Excluding Duplicate Patients
# [14] = Week 9, 6 mg, ITT Population-Excluding Duplicate Patients
substance,measurement,setting,value
"Asn^1-Asp^2-Glu^3-Cys^4-Glu^5-Leu^6-Cys^7-Val^8-Asn^9-Val^10-Ala^11-Cys^12-Thr^13-Gly^14-Cys^15-Leu^16 (NDECELCVNVACTGCL; disulfide 4-12, 7-15) [Plecanatide, uroguanylin analogue, guanylate cyclase-C agonist; (C4:C12, C7:C15) bicycle peptide]","Non-Responders, n (%)","Week 5, Active Combined, ITT Population",605 (67.8) n (%)
same,Difference in Proportions (adjusted),"Week 6, 3 mg minus placebo, All Randomized (includes Duplicate Patients)",0.100
same,Odds Ratio (adjusted),"Week 6, 3 mg vs placebo, All Randomized (includes Duplicate Patients)",0.593
same,"CSBM Weekly Responders, n (%)","Week 6, 3 mg, ITT Population",137 (30.9) n (%)
same,"Non-Responders, n (%)","Week 6, 3 mg, ITT Population",306 (69.1) n (%)
same,"CSBM Weekly Responders, n (%)",[1],136 (31.3) n (%)
same,"Non-Responders, n (%)",[1],298 (68.7) n (%)
same,Difference in Proportions (adjusted),"Week 6, 6 mg minus placebo, All Randomized (includes Duplicate Patients)",0.110
same,Odds Ratio (adjusted),"Week 6, 6 mg vs placebo, All Randomized (includes Duplicate Patients)",0.566
same,"CSBM Weekly Responders, n (%)","Week 6, 6 mg, ITT Population",146 (32.5) n (%)
same,"Non-Responders, n (%)","Week 6, 6 mg, ITT Population",303 (67.5) n (%)
same,"CSBM Weekly Responders, n (%)",[2],146 (33.0) n (%)
same,"Non-Responders, n (%)",[2],297 (67.0) n (%)
same,Difference in Proportions (adjusted),"Week 6, 3 mg minus placebo, ITT Population-Excluding Duplicate Patients",0.096
same,Difference in Proportions (adjusted),"Week 6, 3 mg minus placebo, ITT Population",0.093
same,Odds Ratio (adjusted),"Week 6, 3 mg vs placebo, ITT Population-Excluding Duplicate Patients",0.610
same,Odds Ratio (adjusted),"Week 6, 3 mg vs placebo, ITT Population",0.615
same,Difference in Proportions (adjusted),"Week 6, 6 mg minus placebo, ITT Population-Excluding Duplicate Patients",0.112
same,Difference in Proportions (adjusted),"Week 6, 6 mg minus placebo, ITT Population",0.109
same,Odds Ratio (adjusted),"Week 6, 6 mg vs placebo, ITT Population-Excluding Duplicate Patients",0.565
same,Odds Ratio (adjusted),"Week 6, 6 mg vs placebo, ITT Population",0.571
same,"CSBM Weekly Responders, n (%)",[3],282 (32.2) n (%)
same,"Non-Responders, n (%)",[3],595 (67.8) n (%)
same,"CSBM Weekly Responders, n (%)",[4],283 (31.7) n (%)
same,"Non-Responders, n (%)",[4],609 (68.3) n (%)
same,Difference in Proportions (adjusted),"Week 7, 3 mg minus placebo, All Randomized (includes Duplicate Patients)",0.091
same,Odds Ratio (adjusted),"Week 7, 3 mg vs placebo, All Randomized (includes Duplicate Patients)",0.634
same,"CSBM Weekly Responders, n (%)","Week 7, 3 mg, ITT Population",145 (32.7) n (%)
same,"Non-Responders, n (%)","Week 7, 3 mg, ITT Population",298 (67.3) n (%)
same,"CSBM Weekly Responders, n (%)",[5],144 (33.2) n (%)
same,"Non-Responders, n (%)",[5],290 (66.8) n (%)
same,Difference in Proportions (adjusted),"Week 7, 6 mg minus placebo, All Randomized (includes Duplicate Patients)",0.075
same,Odds Ratio (adjusted),"Week 7, 6 mg vs placebo, All Randomized (includes Duplicate Patients)",0.681
same,"CSBM Weekly Responders, n (%)","Week 7, 6 mg, ITT Population",140 (31.2) n (%)
same,"Non-Responders, n (%)","Week 7, 6 mg, ITT Population",309 (68.8) n (%)
same,"CSBM Weekly Responders, n (%)",[6],140 (31.6) n (%)
same,"Non-Responders, n (%)",[6],303 (68.4) n (%)
same,Difference in Proportions (adjusted),"Week 7, 3 mg minus placebo, ITT Population-Excluding Duplicate Patients",0.089
same,Difference in Proportions (adjusted),"Week 7, 3 mg minus placebo, ITT Population",0.085
same,Odds Ratio (adjusted),"Week 7, 3 mg vs placebo, ITT Population-Excluding Duplicate Patients",0.645
same,Odds Ratio (adjusted),"Week 7, 3 mg vs placebo, ITT Population",0.659
same,Difference in Proportions (adjusted),"Week 7, 6 mg minus placebo, ITT Population-Excluding Duplicate Patients",0.074
same,Difference in Proportions (adjusted),"Week 7, 6 mg minus placebo, ITT Population",0.069
same,Odds Ratio (adjusted),"Week 7, 6 mg vs placebo, ITT Population-Excluding Duplicate Patients",0.693
same,Odds Ratio (adjusted),"Week 7, 6 mg vs placebo, ITT Population",0.707
same,"CSBM Weekly Responders, n (%)",[7],284 (32.4) n (%)
same,"Non-Responders, n (%)",[7],593 (67.6) n (%)
same,"CSBM Weekly Responders, n (%)",[8],285 (32.0) n (%)
same,"Non-Responders, n (%)",[8],607 (68.0) n (%)
same,Difference in Proportions (adjusted),"Week 8, 3 mg minus placebo, All Randomized (includes Duplicate Patients)",0.076
same,Odds Ratio (adjusted),"Week 8, 3 mg vs placebo, All Randomized (includes Duplicate Patients)",0.687
same,"CSBM Weekly Responders, n (%)","Week 8, 3 mg, ITT Population",145 (32.7) n (%)
same,"Non-Responders, n (%)","Week 8, 3 mg, ITT Population",298 (67.3) n (%)
same,"CSBM Weekly Responders, n (%)",[9],144 (33.2) n (%)
same,"Non-Responders, n (%)",[9],290 (66.8) n (%)
same,Difference in Proportions (adjusted),"Week 8, 6 mg minus placebo, All Randomized (includes Duplicate Patients)",0.067
same,Odds Ratio (adjusted),"Week 8, 6 mg vs placebo, All Randomized (includes Duplicate Patients)",0.716
same,"CSBM Weekly Responders, n (%)","Week 8, 6 mg, ITT Population",144 (32.1) n (%)
same,"Non-Responders, n (%)","Week 8, 6 mg, ITT Population",305 (67.9) n (%)
same,"CSBM Weekly Responders, n (%)",[10],143 (32.3) n (%)
same,"Non-Responders, n (%)",[10],300 (67.7) n (%)
same,Difference in Proportions (adjusted),"Week 8, 3 mg minus placebo, ITT Population-Excluding Duplicate Patients",0.073
same,Difference in Proportions (adjusted),"Week 8, 3 mg minus placebo, ITT Population",0.069
same,Odds Ratio (adjusted),"Week 8, 3 mg vs placebo, ITT Population-Excluding Duplicate Patients",0.703
same,Odds Ratio (adjusted),"Week 8, 3 mg vs placebo, ITT Population",0.717
same,Difference in Proportions (adjusted),"Week 8, 6 mg minus placebo, ITT Population-Excluding Duplicate Patients",0.064
same,Difference in Proportions (adjusted),"Week 8, 6 mg minus placebo, ITT Population",0.062
same,Odds Ratio (adjusted),"Week 8, 6 mg vs placebo, ITT Population-Excluding Duplicate Patients",0.731
same,Odds Ratio (adjusted),"Week 8, 6 mg vs placebo, ITT Population",0.738
same,"CSBM Weekly Responders, n (%)",[11],287 (32.7) n (%)
same,"Non-Responders, n (%)",[11],590 (67.3) n (%)
same,"CSBM Weekly Responders, n (%)",[12],289 (32.4) n (%)
same,"Non-Responders, n (%)",[12],603 (67.6) n (%)
same,Difference in Proportions (adjusted),"Week 9, 3 mg minus placebo, All Randomized (includes Duplicate Patients)",0.084
same,Odds Ratio (adjusted),"Week 9, 3 mg vs placebo, All Randomized (includes Duplicate Patients)",0.656
same,"CSBM Weekly Responders, n (%)","Week 9, 3 mg, ITT Population",147 (33.2) n (%)
same,"Non-Responders, n (%)","Week 9, 3 mg, ITT Population",296 (66.8) n (%)
same,"CSBM Weekly Responders, n (%)",[13],146 (33.6) n (%)
same,"Non-Responders, n (%)",[13],288 (66.4) n (%)
same,Difference in Proportions (adjusted),"Week 9, 6 mg minus placebo, All Randomized (includes Duplicate Patients)",0.073
same,Odds Ratio (adjusted),"Week 9, 6 mg vs placebo, All Randomized (includes Duplicate Patients)",0.691
same,"CSBM Weekly Responders, n (%)","Week 9, 6 mg, ITT Population",141 (31.4) n (%)
same,"Non-Responders, n (%)","Week 9, 6 mg, ITT Population",308 (68.6) n (%)
same,"CSBM Weekly Responders, n (%)",[14],140 (31.6) n (%)
same,"Non-Responders, n (%)",[14],303 (68.4) n (%)
same,Difference in Proportions (adjusted),"Week 9, 3 mg minus placebo, ITT Population-Excluding Duplicate Patients",0.082
same,Difference in Proportions (adjusted),"Week 9, 3 mg minus placebo, ITT Population",0.082
same,Odds Ratio (adjusted),"Week 9, 3 mg vs placebo, ITT Population-Excluding Duplicate Patients",0.673
same,Odds Ratio (adjusted),"Week 9, 3 mg vs placebo, ITT Population",0.67
same,Difference in Proportions (adjusted),"Week 9, 6 mg minus placebo, ITT Population-Excluding Duplicate Patients",0.062
same,Difference in Proportions (adjusted),"Week 9, 6 mg minus placebo, ITT Population",0.065
same,Odds Ratio (adjusted),"Week 9, 6 mg vs placebo, ITT Population-Excluding Duplicate Patients",0.738
